Assay results as given in patent EP0617968B1, “HIV protease inhibitors in pharmaceutical combinations for the treatment of AIDS” (Merck & Co., Inc., priority 1993, dated 1994).

Target: T1, HIV protease (Human immunodeficiency virus type 1 group M subtype B, UniProt P04585)
T1 construct: made in house; host or cells: Escherichia coli
Assay: biochemical
Details: protease expressed in Eschericia coli; peptide substrate 0.5 mg/mL; 50 mM Na acetate, pH 5.5, 30°C, 1 hour
Protocol: Assay for Inhibition of Microbial Expressed HIV Protease
Inhibition studies of the reaction of the protease expressed in Eschericia coli with a peptide substrate [Val-Ser-Gln-Asn-(betanapthyl)Ala-Pro-Ile-Val, 0.5 mg/mL at the time the reaction is initiated] were in 50 mM Na acetate, pH 5.5, at 30°C for 1 hour. Various concentrations of inhibitor in 1.0 ul DMSO were added to 25 ul of the peptide solution in water. The reaction is initiated by the addition of 15 ul of 0.33 nM protease (0.11 ng) in a solution of 0.133 M Na acetate pH 5.5 and 0.1% bovine serum albumin. The reaction was quenched with 160 ul of 5% phosphoric acid. Products of the reaction were separated by HPLC (VYDAC wide pore 5 cm C-18 reverse phase, acetonitrile gradient, 0.1 % phosphoric acid). The extent of inhibition of the reaction was determined from the peak heights of the products.

| IC50 | SMILES |
| --- | --- |
| 0.3 to 6 nM | CC(C)(C)NC(=O)[C@@H]1C[C@@H]2CCCC[C@@H]2CN1C[C@@H](O)C[C@@H](Cc1ccccc1)C(=O)N[C@H]1c2ccccc2C[C@H]1O [A, N-(2(R)-hydroxy-1(S)-indanyl)-2(R)-phenylmethyl-4(S)-hydroxy-5-(2-(3(S)-N'-(t-butylcarbamoyl)-(4aS,8aS)-decahydroisoquinoline)yl)-pentaneamide] |
| 0.3 to 6 nM | CC(C)(C)NC(=O)[C@@H]1CN(C(=O)OCc2ccccc2)CCN1C[C@@H](O)C[C@@H](Cc1ccccc1)C(=O)N[C@H]1c2ccccc2C[C@H]1O [B, N-(2(R)-hydroxy-1(S)-indanyl)-2(R)-phenylmethyl-4(S)-hydroxy-5-(1-(4-carbobenzyloxy-2(S)-N'-(t-butylcarbamoyl)-piperazinyl))-pentaneamide] |
